Test [1] deals with rh-AChE (Homo sapiens, UniProt P22303). In words: biochemical.
The target of test [2] is rh-BuChE (Homo sapiens, UniProt P06276). In words: IC50 rh-BuChE. Format: biochemical.
Test [3] addresses T1, erythrocyte h-AChE (Homo sapiens, UniProt P22303).
T1 construct: from tissue; host or cells: human erythrocytes
In words: IC50 erythrocyte h-AChE. Format: biochemical. Conditions: read-out: IC50 erythrocyte h-AChE.

Where a name gives a salt, the structure may show the parent alone. Read-outs that look alike come from different tables or passages of the source.

Sequence of rh-AChE (P22303 32-614): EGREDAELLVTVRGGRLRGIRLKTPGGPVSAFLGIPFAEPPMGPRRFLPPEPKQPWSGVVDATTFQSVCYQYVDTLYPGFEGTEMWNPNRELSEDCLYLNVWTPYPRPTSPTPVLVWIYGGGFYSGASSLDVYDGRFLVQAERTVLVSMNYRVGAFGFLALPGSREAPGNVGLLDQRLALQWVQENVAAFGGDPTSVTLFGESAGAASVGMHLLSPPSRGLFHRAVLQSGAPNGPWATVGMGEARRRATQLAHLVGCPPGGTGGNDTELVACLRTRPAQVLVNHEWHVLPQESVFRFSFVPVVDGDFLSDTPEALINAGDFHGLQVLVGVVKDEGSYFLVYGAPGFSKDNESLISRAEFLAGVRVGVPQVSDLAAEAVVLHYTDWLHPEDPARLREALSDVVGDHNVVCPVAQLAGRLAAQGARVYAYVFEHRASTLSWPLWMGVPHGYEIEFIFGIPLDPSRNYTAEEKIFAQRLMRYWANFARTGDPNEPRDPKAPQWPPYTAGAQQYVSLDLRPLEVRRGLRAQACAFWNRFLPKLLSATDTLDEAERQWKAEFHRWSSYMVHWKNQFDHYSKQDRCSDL
T1 sequence (P22303 32-617 isoform P22303-2 limits assumed): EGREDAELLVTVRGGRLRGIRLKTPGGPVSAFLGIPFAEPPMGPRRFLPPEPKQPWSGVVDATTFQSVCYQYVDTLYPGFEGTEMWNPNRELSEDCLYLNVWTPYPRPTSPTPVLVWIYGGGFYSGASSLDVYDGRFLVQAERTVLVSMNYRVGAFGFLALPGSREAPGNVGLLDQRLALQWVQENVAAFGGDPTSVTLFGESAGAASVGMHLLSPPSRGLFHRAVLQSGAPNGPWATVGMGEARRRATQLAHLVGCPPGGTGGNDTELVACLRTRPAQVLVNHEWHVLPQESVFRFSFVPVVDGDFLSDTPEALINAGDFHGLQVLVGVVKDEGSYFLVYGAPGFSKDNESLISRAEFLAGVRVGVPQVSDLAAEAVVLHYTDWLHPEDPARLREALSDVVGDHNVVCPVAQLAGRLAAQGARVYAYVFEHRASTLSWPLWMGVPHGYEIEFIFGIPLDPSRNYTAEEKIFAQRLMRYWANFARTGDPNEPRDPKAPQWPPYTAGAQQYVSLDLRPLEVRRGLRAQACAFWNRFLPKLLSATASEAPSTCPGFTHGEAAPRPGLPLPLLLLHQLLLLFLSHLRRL
Sequence of rh-BuChE (P06276 29-602): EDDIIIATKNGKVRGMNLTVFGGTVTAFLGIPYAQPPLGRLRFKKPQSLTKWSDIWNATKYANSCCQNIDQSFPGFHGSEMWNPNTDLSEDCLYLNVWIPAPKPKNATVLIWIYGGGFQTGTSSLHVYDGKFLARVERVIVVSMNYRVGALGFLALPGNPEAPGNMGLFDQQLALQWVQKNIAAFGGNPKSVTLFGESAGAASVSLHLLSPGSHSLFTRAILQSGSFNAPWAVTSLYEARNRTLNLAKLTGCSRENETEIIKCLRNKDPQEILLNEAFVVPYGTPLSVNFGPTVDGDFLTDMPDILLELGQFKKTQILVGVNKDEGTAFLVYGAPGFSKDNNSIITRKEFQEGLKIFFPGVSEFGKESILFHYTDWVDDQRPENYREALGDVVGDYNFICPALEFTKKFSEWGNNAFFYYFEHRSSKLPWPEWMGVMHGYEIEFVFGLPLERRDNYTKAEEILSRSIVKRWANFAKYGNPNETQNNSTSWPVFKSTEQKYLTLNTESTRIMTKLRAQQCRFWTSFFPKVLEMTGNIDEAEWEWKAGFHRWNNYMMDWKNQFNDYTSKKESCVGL

As to `COc1cc2c(cc1OC)C(c1ccccc1)N(Cc1cn(CCCCC3=CC4Cc5nc6cc(Cl)ccc6c(N)c5C(C3)C4)nn1)CC2` (centres unmarked) [HUP32-PIQ1, 3-Chloro-9-(4-{4-[(6,7-dimethoxy-1-phenyl-3,4-dihydroisoquinolin-2(1H)-yl)methyl]-1H-1,2,3-triazol-1-yl}butyl)-6,7,10,11-tetrahydro-7,11-methanocycloocta[b]quinolin-12-amine Ditrifluoroacetic Acid], the IC50 (as a rule, the concentration that gives 50% inhibition) in test [1] (read-out: IC50 rh-AChE) was 3.31 ± 0.2 nM; in test [2] (read-out: IC50 rh-BuChE), 20.6 ± 0.2 nM.
In the same order, the values of `COc1cc2c(cc1OC)C(c1ccccc1)N(CCCc1cn(CCCCC3=CC4Cc5nc6cc(Cl)ccc6c(N)c5C(C3)C4)nn1)CC2` (centres unmarked) [HUP32-PIQ3, 3-Chloro-9-(4-{4-[3-(6,7-dimethoxy-1-phenyl-3,4-dihydroisoquinolin-2(1H)-yl)propyl]-1H-1,2,3-triazol-1-yl}butyl)-6,7,10,11-tetrahydro-7,11-methanocycloocta[b]quinolin-12-amine Ditrifluoroacetic Acid] are 0.61 ± 0.1 nM and 11.4 ± 0.6 nM.
For the compound `COc1cc2c(cc1OC)C(c1ccccc1)N(CCCCc1cn(CCCCC3=CC4Cc5nc6cc(Cl)ccc6c(N)c5C(C3)C4)nn1)CC2` (centres unmarked) [HUP32-PIQ4, 3-Chloro-9-(4-{4-[4-(6,7-dimethoxy-1-phenyl-3,4-dihydroisoquinolin-2(1H)-yl)butyl]-1H-1,2,3-triazol-1-yl}butyl)-6,7,10,11-tetrahydro-7,11-methanocycloocta[b]quinolin-12-amine Ditrifluoroacetic Acid], the IC50 in test [1] (read-out: IC50 rh-AChE) was determined as 0.78 ± 0.1 nM; in test [2] (read-out: IC50 rh-BuChE) it was 9.5 ± 0.6 nM.
Consider `CCOC(=O)CC1=CC2Cc3nc4cc(Cl)ccc4c(N)c3C(C1)C2` (centres unmarked) [HUP 1, Ethyl (12-Amino-3-chloro-6,7,10,11-tetrahydro-7,11-methanocycloocta[b]quinolin-9-yl)acetate], for which the IC50 worked out at 3.9 ± 0.5 nM in test [1] (read-out: IC50 rh-AChE), 137 ± 11 nM in test [2] (read-out: IC50 rh-BuChE) and 38.3 nM in test [3].
Regarding `C=CC1=CC2Cc3nc4cc(Cl)ccc4c(N)c3C(C1)C2` (centres unmarked) [HUP 3, 3-Chloro-9-vinyl-6,7,10,11-tetrahydro-7,11-methanocycloocta[b]quinolin-12-amine Trifluoroacetic Acid], the values for the IC50 in test [1] (read-out: IC50 rh-AChE), in test [2] (read-out: IC50 rh-BuChE) and in test [3] were 1.32 ± 0.17 nM, 180 ± 13 nM and 405 nM, respectively.
`CC(=O)OCCC1=CC2Cc3nc4cc(Cl)ccc4c(N)c3C(C1)C2` (centres unmarked) [HUP 4, 2-(12-Amino-3-chloro-6,7,10,11-tetrahydro-7,11-methanocycloocta[b]quinolin-9-yl)ethyl Acetate]: the IC50 in test [1] (read-out: IC50 rh-AChE) amounted to 1.44 ± 0.18 nM; in test [3], 12 nM.
Turning to `Nc1c2c(nc3cc(Cl)ccc13)CC1C=C(CCOC(=O)C(F)(F)F)CC2C1` (centres unmarked) [HUP 5, 2-(12-Amino-3-chloro-6,7,10,11-tetrahydro-7,11-methanocycloocta[b]quinolin-9-yl)ethyl Trifluoroacetate], the figures for the half-inhibitory concentration (IC50) in test [1] (read-out: IC50 rh-AChE), in test [2] (read-out: IC50 rh-BuChE) and in test [3] were 1.69 ± 0.16 nM, 1360 nM and 27.5 nM, respectively.
With `Nc1c2c(nc3cc(Cl)ccc13)CC1C=C(CCI)CC2C1` (centres unmarked) [HUP 7, 3-Chloro-9-(2-iodoethyl)-6,7,10,11-tetrahydro-7,11-methanocycloocta[b]quinolin-12-amine], the IC50 in test [1] (read-out: IC50 rh-AChE) stood at 2.7 ± 0.82 nM; in test [2] (read-out: IC50 rh-BuChE), 141 ± 7 nM.
Turning to `N#CCCC1=CC2Cc3nc4cc(Cl)ccc4c(N)c3C(C1)C2` (centres unmarked) [HUP 8, 3-(12-Amino-3-chloro-6,7,10,11-tetrahydro-7,11-methanocycloocta[b]quinolin-9-yl)propanenitrile Trifluoroacetic Acid], the IC50 in test [1] (read-out: IC50 rh-AChE) came to 3.15 ± 0.42 nM; in test [2] (read-out: IC50 rh-BuChE), 514 ± 58 nM.
Consider `Nc1c2c(nc3cc(Cl)ccc13)CC1C=C(CCF)CC2C1` (centres unmarked) [HUP 10, 3-Chloro-9-(2-fluoroethyl)-6,7,10,11-tetrahydro-7,11-methanocycloocta[b]quinolin-12-amine], for which the values for the IC50 in test [1] (read-out: IC50 rh-AChE) and in test [2] (read-out: IC50 rh-BuChE) were 4.16 ± 0.79 nM and 522 ± 120 nM, respectively.
Compound `Nc1c2c(nc3cc(Cl)ccc13)CC1C=C(CC(=O)O)CC2C1` (centres unmarked) [HUP 11, 12-Amino-3-chloro-9-carboxymethyl-6,7,10,11-tetrahydro-7,11 methanocycloocta[b]quinoline Hydrochloride] displayed an IC50 in test [1] of 5.3 ± 1.1 nM.
Regarding `[N-]=[N+]=NCCC1=CC2Cc3nc4cc(Cl)ccc4c(N)c3C(C1)C2` (centres unmarked) [HUP 12, 9-(2-Azidoethyl)-3-chloro-6,7,10,11-tetrahydro-7,11-methanocycloocta[b]quinolin-12-amine], the IC50 in test [1] (read-out: IC50 rh-AChE) stood at 5.56 ± 0.82 nM; in test [2] (read-out: IC50 rh-BuChE), 522 ± 120 nM.
In the same order, the values of `CS(=O)(=O)OCCC1=CC2Cc3nc4cc(Cl)ccc4c(N)c3C(C1)C2` (centres unmarked) [HUP 13, 2-(12-Amino-3-chloro-6,7,10,11-tetrahydro-7,11-methanocycloocta[b]quinolin-9-yl) Ethyl Methanesulfonate] are 8.5 ± 1.1 nM and 415 ± 97 nM.
On to `NNCCC1=CC2Cc3nc4cc(Cl)ccc4c(N)c3C(C1)C2` (centres unmarked) [HUP 14, 3-Chloro-9-(2-hydrazinoethyl)-6,7,10,11-tetrahydro-7,11-methanocyclo octa[b]quinolin-12-amine Ditrifluoroacetic Acid], for which the IC50 turned out to be 9.5 ± 2.7 nM in test [1] (read-out: IC50 rh-AChE) and 668 ± 110 nM in test [2].
Take `Nc1c2c(nc3cc(Cl)ccc13)CC1C=C(CCNO)CC2C1` (centres unmarked) [HUP 15, 3-Chloro-9-[2-(hydroxyamino)ethyl]-6,7,10,11-tetrahydro-7,11-methano cycloocta[b]quinolin-12-amine Ditrifluoroacetic Acid]: the IC50 in test [1] (read-out: IC50 rh-AChE) came out at 18.5 ± 2.2 nM.
As for `CC(C)(C)OC(=O)ON(CCC1=CC2Cc3nc4cc(Cl)ccc4c(N)c3C(C1)C2)C(=O)OC(C)(C)C` (centres unmarked) [HUP 16, Tert-butyl[2-(12-amino-3-chloro-6,7,10,11-tetrahydro-7,11-methanocycloocta[b]quinolin-9-yl)ethyl][(tert-butoxycarbonyl)oxy]carbamate], the IC50 in test [1] (read-out: IC50 rh-AChE) was determined as 14.8 ± 3.2 nM; in test [2] (read-out: IC50 rh-BuChE) it was 421 ± 72 nM.
Take `NC(=O)OCCC1=CC2Cc3nc4cc(Cl)ccc4c(N)c3C(C1)C2` (centres unmarked) [HUP 17, 2-(12-Amino-3-chloro-6,7,10,11-tetrahydro-7,11-methanocycloocta[b]quinolin-9-yl)ethyl Carbamate Trifluoroacetic Acid]: the IC50 in test [1] (read-out: IC50 rh-AChE) stood at 18.5 ± 2.2 nM; in test [2] (read-out: IC50 rh-BuChE), 413 ± 40 nM.
In the same order, the values of `CN(C)C(=O)CC1=CC2Cc3nc4cc(Cl)ccc4c(N)c3C(C1)C2` (centres unmarked) [HUP 19, 2-(12-Amino-3-chloro-6,7,10,11-tetrahydro-7,11-methanocycloocta[b]quinolin-9-yl)-N,N-dimethylacetamide Trifluoroacetic Acid] are 26.3 ± 1.7 nM and 2760 nM.
Consider `NC(=O)CC1=CC2Cc3nc4cc(Cl)ccc4c(N)c3C(C1)C2` (centres unmarked) [HUP 20, 2-(12-Amino-3-chloro-6,7,10,11-tetrahydro-7,11-methanocycloocta[b]quinolin-9-yl)acetamide Trifluoroacetic Acid], for which, in test [1] (read-out: IC50 rh-AChE), the IC50 is 29.3 ± 3.7 nM.
Consider `CN(C)CCC1=CC2Cc3nc4cc(Cl)ccc4c(N)c3C(C1)C2` (centres unmarked) [HUP 21, 3-Chloro-9-[2-(dimethylamino)ethyl]-6,7,10,11-tetrahydro-7,11-methano cycloocta[b]quinolin-12-amine Ditrifluoroacetic Acid], for which the IC50 in test [1] (read-out: IC50 rh-AChE) amounted to 97 ± 10 nM; in test [2], 2910 nM.
`COC(=O)c1cn(CCC2=CC3Cc4nc5cc(Cl)ccc5c(N)c4C(C2)C3)nn1` (centres unmarked) [HUP 22, Methyl 1-[2-(12-amino-3-chloro-6,7,10,11-tetrahydro-7,11-methanocycloocta[b]quinolin-9-yl)ethyl]-1H-1,2,3-triazole-4-carboxylate]: in test [1] (read-out: IC50 rh-AChE), the IC50 was determined as 130 ± 15 nM.
Regarding `Nc1c2c(nc3cc(Cl)ccc13)CC1C=C(CCn3cc(CO)nn3)CC2C1` (centres unmarked) [HUP 23, {1-[2-(12-Amino-3-chloro-6,7,10,11-tetrahydro-7,11-methanocycloocta[b]quinolin-9-yl)ethyl]-1H-1,2,3-triazol-4-yl}methanol Trifluoroacetic Acid], the IC50 in test [1] (read-out: IC50 rh-AChE) stood at 210 ± 28 nM.
Take `C[N+](C)(C)CCC1=CC2Cc3nc4cc(Cl)ccc4c(N)c3C(C1)C2` (centres unmarked) [HUP 25, 2-(12-Amino-3-chloro-6,7,10,11-tetrahydro-7,11-methanocycloocta[b]quinolin-9-yl)-N,N,N-trimethylethanaminium Ditrifluoroacetic Acid]: the IC50 in test [1] (read-out: IC50 rh-AChE) stood at 262 ± 22 nM.
`Nc1c2c(nc3cc(Cl)ccc13)CC1C=C(CCC(CO)CO)CC2C1` (centres unmarked) [HUP 28, 2-[2-(12-Amino-3-chloro-6,7,10,11-tetrahydro-7,11-methanocycloocta[b]quinolin-9-yl)ethyl]propane-1,3-diol Trifluoroactic Acid]: the IC50 in test [1] (read-out: IC50 rh-AChE) came out at 24.7 ± 1.2 nM; in test [3], 40.2 nM.
Regarding `Nc1c2c(nc3cc(Cl)ccc13)CC1C=C(CCCCn3cc(COC(=O)C(F)(F)F)nn3)CC2C1` (centres unmarked) [HUP 35, {1-[4-(12-Amino-3-chloro-6,7,10,11-tetrahydro-7,11-methanocycloocta[b]quinolin-9-yl)butyl]-1H-1,2,3-triazol-4-yl}methyl Trifluoroacetate], the results for the IC50 in test [1] (read-out: IC50 rh-AChE) and in test [3] were 34.6 ± 2.6 nM and 69.8 nM, respectively.
Consider `C=C1c2nc3cc(Cl)ccc3c(N)c2C2CC(CCCC(=O)OCC)=CC1C2` (centres unmarked) [HUP 36, Ethyl 4-(12-Amino-3-chloro-6-methylene-6,7,10,11-tetrahydro-7,11-methanocycloocta[b]quinolin-9-yl)butanoate], for which the IC50 in test [1] (read-out: IC50 rh-AChE) was 90.6 ± 8.4 nM.
In the case of `C=C1c2nc3cc(Cl)ccc3c(N)c2C2CC(CCCCO)=CC1C2` (centres unmarked) [HUP 37, 4-(12-Amino-3-chloro-6-methylene-6,7,10,11-tetrahydro-7,11-methanocycloocta[b]quinolin-9-yl)butan-1-ol Trifluoroacetic Acid], in test [1] (read-out: IC50 rh-AChE), the concentration for half-maximal inhibition (IC50) was 256 ± 34 nM.
As for `Nc1c2c(nc3ccccc13)CC1C=C(CCCCn3cc(CO)nn3)CC2C1` (centres unmarked) [HUP 38, {1-[4-(12-Amino-6,7,10,11-tetrahydro-7,11-methanocycloocta[b]quinolin-9-yl)butyl]-1H-1,2,3-triazol-4-yl}methanol Trifluoroacetic Acid], the values for the IC50 in test [1] (read-out: IC50 rh-AChE) and in test [2] (read-out: IC50 rh-BuChE) were 94.1 ± 2.8 nM and 357 ± 16 nM, respectively.
Turning to `CS(=O)(=O)OCCC1=CC2Cc3nc4ccccc4c(N)c3C(C1)C2` (centres unmarked) [HUP 39, 2-(12-Amino-6,7,10,11-tetrahydro-7,11-methanocycloocta[b]quinolin-9-yl) Ethyl Methanesulfonate], the IC50 in test [1] (read-out: IC50 rh-AChE) turned out to be 149 ± 6 nM; in test [2] (read-out: IC50 rh-BuChE), 171 ± 4 nM.

For the origin of these results see patent publication US9040506B2, “7,11-methanocycloocta [B] quinoline derivative as highly functionalizable acetylcholinesterase inhibitors” (priority 2010, dated 2015).
